In brackets after ≈: the same amount, converted by molar mass.
Key:
THP-1 = assay: Cytotoxicity against human THP1 cells after 24 hrs by MTS assay; type: cell-based; settings: THP-1, 24 h
HepG2 = assay: Cytotoxicity against human HepG2 cells after 24 hrs by MTS assay; type: cell-based; settings: HepG2, 24 h
Haemophilus influenzae = assay: Antibacterial activity against Haemophilus influenzae ATCC 49247 by broth microdilution method; type: functional
Streptococcus pyogenes [1] = assay: Antibacterial activity against constitutive MLS resistance Streptococcus pyogenes 166 GR-Micro by broth microdilution method; type: functional
Streptococcus pneumoniae [2] = assay: Antibacterial activity against constitutive MLS resistance Streptococcus pneumoniae 58 by broth microdilution method; type: functional
Streptococcus pyogenes [3] = assay: Antibacterial activity against efflux-mediated macrolide-resistance Streptococcus pyogenes 2 by broth microdilution method; type: functional
Streptococcus pneumoniae [4] = assay: Antibacterial activity against efflux-mediated macrolide-resistance Streptococcus pneumoniae Ci137 by broth microdilution method; type: functional
Staphylococcus aureus [5] = assay: Antibacterial activity against efflux-mediated macrolide-resistance Staphylococcus aureus PK1 by broth microdilution method; type: functional
Streptococcus pyogenes [6] = assay: Antibacterial activity against inducible resistance to macrolide, licosamide and streptogramin Streptococcus pyogenes 11 by broth microdilution method; type: functional
Streptococcus pneumoniae [7] = assay: Antibacterial activity against inducible resistance to macrolide and constitutive resistance to lincosamide Streptococcus pneumoniae 134 GR M by broth microdilution method; type: functional
Staphylococcus aureus [8] = assay: Antibacterial activity against inducible resistance to macrolide, licosamide, and streptogramin Staphylococcus aureus 90265/97 by broth microdilution method; type: functional

`CC[C@H]1OC(=O)[C@H](C)[C@@H](O[C@H]2C[C@@](C)(OC)[C@@H](OCCCOCCCCc3cc4c5c(c3)c(=O)c(C(=O)O)cn5C(C)(C)CO4)[C@H](C)O2)[C@H](C)[C@@H](O[C@@H]2O[C@H](C)C[C@H](N(C)C)[C@H]2O)[C@](C)(O)C[C@@H](C)CN(C)[C@H](C)[C@@H](O)[C@]1(C)O` gave an IC50 (THP-1) of 11 µM, an IC50 (HepG2) of 46 µM and an MIC (Haemophilus influenzae) of 1 µg/mL (≈ 0.893 µM). For the same compound, the MIC (Streptococcus pyogenes [1]) was 0.5 µg/mL (≈ 0.446 µM), the MIC (Streptococcus pneumoniae [2]) was no more than 0.125 µg/mL and the MIC (Streptococcus pyogenes [3]) was no more than 0.125 µg/mL. The MIC (Streptococcus pneumoniae [4]; read-out: MIC) was no more than 0.125 µg/mL, the MIC (Staphylococcus aureus [5]) was no more than 0.125 µg/mL and the MIC (Streptococcus pyogenes [6]; read-out: MIC) was no more than 0.125 µg/mL. It also gave an MIC (Streptococcus pneumoniae [7]) of 0.5 µg/mL (≈ 0.446 µM) and an MIC (Staphylococcus aureus [8]) of no more than 0.125 µg/mL.

Compound `CC[C@H]1OC(=O)[C@H](C)[C@@H](O[C@H]2C[C@@](C)(OC)[C@@H](OCCCOCCCc3cc4c5c(c3)c(=O)c(C(=O)O)cn5C(C)(C)CO4)[C@H](C)O2)[C@H](C)[C@@H](O[C@@H]2O[C@H](C)C[C@H](N(C)C)[C@H]2O)[C@](C)(O)C[C@@H](C)CN(C)[C@H](C)[C@@H](O)[C@]1(C)O` has an IC50 (THP-1) of 40 µM, an IC50 (HepG2) greater than 50 µM and an MIC (Haemophilus influenzae) of 2 µg/mL (≈ 1.81 µM). The MIC (Streptococcus pyogenes [1]) was 1 µg/mL (≈ 0.904 µM), the MIC (Streptococcus pneumoniae [2]) was no more than 0.125 µg/mL and the MIC (Streptococcus pneumoniae [4]) was less than 0.02 µg/mL. The MIC (Staphylococcus aureus [5]) was 0.13 µg/mL (≈ 0.117 µM), the MIC (Streptococcus pyogenes [6]) was less than 0.02 µg/mL and the MIC (Streptococcus pneumoniae [7]) was no more than 0.125 µg/mL. The MIC (Staphylococcus aureus [8]) was 0.06 µg/mL (≈ 0.0542 µM).

`CC[C@H]1OC(=O)[C@H](C)[C@@H](O[C@H]2C[C@@](C)(OC)[C@@H](OCCCOCCCc3cc4c5c(c3)c(=O)c(C(=O)O)cn5C(C)(C)OC4)[C@H](C)O2)[C@H](C)[C@@H](O[C@@H]2O[C@H](C)C[C@H](N(C)C)[C@H]2O)[C@](C)(O)C[C@@H](C)CN(C)[C@H](C)[C@@H](O)[C@]1(C)O` gave an IC50 (THP-1) of 40 µM, an IC50 (HepG2) greater than 50 µM and an MIC (Haemophilus influenzae) of 1 µg/mL (≈ 0.904 µM). It also gave an MIC (Streptococcus pyogenes [1]) of no more than 0.125 µg/mL, an MIC (Streptococcus pneumoniae [2]) of no more than 0.125 µg/mL and an MIC (Streptococcus pyogenes [3]) of no more than 0.125 µg/mL. For the same compound, the MIC (Streptococcus pneumoniae [4]; read-out: MIC) was no more than 0.125 µg/mL, the MIC (Staphylococcus aureus [5]) was no more than 0.125 µg/mL and the MIC (Streptococcus pyogenes [6]; read-out: MIC) was no more than 0.125 µg/mL. For the same compound, the MIC (Streptococcus pneumoniae [7]) was no more than 0.125 µg/mL and the MIC (Staphylococcus aureus [8]) was no more than 0.125 µg/mL.

Compound `CC[C@H]1OC(=O)[C@H](C)[C@@H](O[C@H]2C[C@@](C)(OC)[C@@H](OCCCOCCCCCc3ccc4c(c3)c(=O)c(C(=O)O)cn4N(C)C)[C@H](C)O2)[C@H](C)[C@@H](O[C@@H]2O[C@H](C)C[C@H](N(C)C)[C@H]2O)[C@](C)(O)C[C@@H](C)CN(C)[C@H](C)[C@@H](O)[C@]1(C)O` has an IC50 (THP-1) of 8 µM, an IC50 (HepG2) of 13 µM and an MIC (Haemophilus influenzae) of 1 µg/mL (≈ 0.903 µM). For the same compound, the MIC (Streptococcus pyogenes [1]) was 0.25 µg/mL (≈ 0.226 µM), the MIC (Streptococcus pneumoniae [2]) was no more than 0.125 µg/mL and the MIC (Streptococcus pyogenes [3]) was no more than 0.125 µg/mL. It also gave an MIC (Streptococcus pneumoniae [4]; read-out: MIC) of no more than 0.125 µg/mL, an MIC (Staphylococcus aureus [5]) of no more than 0.125 µg/mL and an MIC (Streptococcus pyogenes [6]; read-out: MIC) of no more than 0.125 µg/mL. For the same compound, the MIC (Streptococcus pneumoniae [7]) was 0.5 µg/mL (≈ 0.451 µM) and the MIC (Staphylococcus aureus [8]) was no more than 0.125 µg/mL.

For `CC[C@H]1OC(=O)[C@H](C)[C@@H](O[C@H]2C[C@@](C)(OC)[C@@H](OCCCOCCCCCc3ccc4c(c3)c(=O)c(C(=O)O)cn4CC)[C@H](C)O2)[C@H](C)[C@@H](O[C@@H]2O[C@H](C)C[C@H](N(C)C)[C@H]2O)[C@](C)(O)C[C@@H](C)CN(C)[C@H](C)[C@@H](O)[C@]1(C)O`, the IC50 (THP-1) was 9 µM, the IC50 (HepG2) was 20 µM and the MIC (Haemophilus influenzae) was 2 µg/mL (≈ 1.83 µM). For the same compound, the MIC (Streptococcus pyogenes [1]) was 0.25 µg/mL (≈ 0.229 µM), the MIC (Streptococcus pneumoniae [2]) was no more than 0.125 µg/mL and the MIC (Streptococcus pyogenes [3]) was no more than 0.125 µg/mL. The MIC (Streptococcus pneumoniae [4]; read-out: MIC) was no more than 0.125 µg/mL, the MIC (Staphylococcus aureus [5]) was no more than 0.125 µg/mL and the MIC (Streptococcus pyogenes [6]; read-out: MIC) was no more than 0.125 µg/mL. It also gave an MIC (Streptococcus pneumoniae [7]) of 0.5 µg/mL (≈ 0.458 µM) and an MIC (Staphylococcus aureus [8]) of no more than 0.125 µg/mL.

In the case of `CC[C@H]1OC(=O)[C@H](C)[C@@H](O[C@H]2C[C@@](C)(OC)[C@@H](OCCCOCCCCc3ccc4c(c3)c(=O)c(C(=O)O)cn4N(C)C)[C@H](C)O2)[C@H](C)[C@@H](O[C@@H]2O[C@H](C)C[C@H](N(C)C)[C@H]2O)[C@](C)(O)C[C@@H](C)CN(C)[C@H](C)[C@@H](O)[C@]1(C)O`, the IC50 (THP-1) is reported as 20 µM, the IC50 (HepG2) is reported as 42 µM and the MIC (Haemophilus influenzae) is reported as 4 µg/mL (≈ 3.66 µM). For the same compound, the MIC (Streptococcus pyogenes [1]) was 0.5 µg/mL (≈ 0.457 µM), the MIC (Streptococcus pneumoniae [2]) was 0.25 µg/mL (≈ 0.229 µM) and the MIC (Streptococcus pyogenes [3]) was no more than 0.125 µg/mL. For the same compound, the MIC (Streptococcus pneumoniae [4]; read-out: MIC) was no more than 0.125 µg/mL, the MIC (Staphylococcus aureus [5]) was no more than 0.125 µg/mL and the MIC (Streptococcus pyogenes [6]; read-out: MIC) was no more than 0.125 µg/mL. The MIC (Streptococcus pneumoniae [7]) was 0.5 µg/mL (≈ 0.457 µM) and the MIC (Staphylococcus aureus [8]) was no more than 0.125 µg/mL.

Compound `CC[C@H]1OC(=O)[C@H](C)[C@@H](O[C@H]2C[C@@](C)(OC)[C@@H](OCCCOCCCCc3ccc4c(c3)c(=O)c(C(=O)O)cn4CC)[C@H](C)O2)[C@H](C)[C@@H](O[C@@H]2O[C@H](C)C[C@H](N(C)C)[C@H]2O)[C@](C)(O)C[C@@H](C)CN(C)[C@H](C)[C@@H](O)[C@]1(C)O` has an IC50 (THP-1) of 22 µM, an IC50 (HepG2) of 46 µM and an MIC (Haemophilus influenzae) of 0.5 µg/mL (≈ 0.464 µM). It also gave an MIC (Streptococcus pyogenes [1]) of no more than 0.125 µg/mL, an MIC (Streptococcus pneumoniae [2]) of no more than 0.125 µg/mL and an MIC (Streptococcus pyogenes [3]) of no more than 0.125 µg/mL. For the same compound, the MIC (Streptococcus pneumoniae [4]; read-out: MIC) was no more than 0.125 µg/mL, the MIC (Staphylococcus aureus [5]) was no more than 0.125 µg/mL and the MIC (Streptococcus pyogenes [6]; read-out: MIC) was no more than 0.125 µg/mL. For the same compound, the MIC (Streptococcus pneumoniae [7]) was no more than 0.125 µg/mL and the MIC (Staphylococcus aureus [8]) was no more than 0.125 µg/mL.

For `CC[C@H]1OC(=O)[C@H](C)[C@@H](O[C@H]2C[C@@](C)(OC)[C@@H](OCCCOCCCCc3ccc4c(c3)c(=O)c(C(=O)O)cn4C3CC3)[C@H](C)O2)[C@H](C)[C@@H](O[C@@H]2O[C@H](C)C[C@H](N(C)C)[C@H]2O)[C@](C)(O)C[C@@H](C)CN(C)[C@H](C)[C@@H](O)[C@]1(C)O`, the IC50 (THP-1) was 20 µM, the IC50 (HepG2) was 47 µM and the MIC (Haemophilus influenzae) was 0.5 µg/mL (≈ 0.459 µM). For the same compound, the MIC (Streptococcus pyogenes [1]) was no more than 0.125 µg/mL, the MIC (Streptococcus pneumoniae [2]) was no more than 0.125 µg/mL and the MIC (Streptococcus pyogenes [3]) was no more than 0.125 µg/mL. It also gave an MIC (Streptococcus pneumoniae [4]; read-out: MIC) of no more than 0.125 µg/mL, an MIC (Staphylococcus aureus [5]) of no more than 0.125 µg/mL and an MIC (Streptococcus pyogenes [6]; read-out: MIC) of no more than 0.125 µg/mL. It also gave an MIC (Streptococcus pneumoniae [7]) of no more than 0.125 µg/mL and an MIC (Staphylococcus aureus [8]) of no more than 0.125 µg/mL.

— ChEMBL document CHEMBL1221321, “Synthesis and properties of macrolones characterized by two ether bonds in the linker” (Bioorg Med Chem, 2010)
